CCC[C@H](N)C(=O)O
solubility (mole fraction)
Settings	298.15 K	303.15 K	308.15 K	313.15 K	318.15 K	323.15 K
in acetone	0.000515	0.000664	0.000828	0.00106	0.00135	0.00161
in acetonitrile	5.93e-05	6.88e-05	7.54e-05	8.02e-05	8.53e-05	9.69e-05
in ethanol	0.000171	0.000186	0.000201	0.000227	0.000244	0.000283
in ethyl acetate	0.000253	0.000301	0.000349	0.000449	0.0005	0.00056
in isopentanol	0.000726	0.000875	0.00103	0.00122	0.00151	0.00183
in isopropanol	0.00119	0.0015	0.00173	0.00192	0.00215	0.00249
in methanol	0.00104	0.00109	0.00113	0.0012	0.00126	0.00129
in methyl acetate	7.37e-05	9.03e-05	0.00012	0.00015	0.000176	0.000216
in n-butanol	0.000962	0.00122	0.0014	0.00157	0.00175	0.0019
in n-pentanol	0.000508	0.000567	0.000639	0.000744	0.000818	0.000872
in n-propanol	0.000859	0.00115	0.0015	0.00189	0.00231	0.00278
in water	0.0135	0.0136	0.0137	0.0138	0.0139	0.0141

Source: BigSolDB 2.1
